Source: patent US20150105252A1, “SUBSTITUTED PYRAZOLES AS HERBICIDES” (E I DU PONT DE NEMOURS AND COMPANY, priority 2013, published 2015)

Columns and labels:
barnyardgrass [1] = experiment: Test C flooded paddy test; format: in vivo, Echinochloa crus-galli; conditions: Flood
How it was run: (§1)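 Visual injury ratings against untreated controls, taken 13 to 15 days after compound was added to paddy water standing 3 cm above the soil.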

morningglory [2] = experiment: Test A preemergence; format: in vivo, Ipomoea spp.; conditions: preemergence
How it was run: (§2)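 Ratings express plant response from 0 (no effect) to 100 (complete control), judged visually against untreated controls after approximately 10 days in the greenhouse. Preemergence applications were made as directed soil sprays onto seeded loam–sand mix, and postemergence applications onto 2–10 cm plants at one- to two-leaf stage.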

ducksalad [3] = experiment: Test B flood; format: in vivo, Heteranthera limosa; conditions: 250 g ai/ha, visual rating on 0 to 100 scale (0 no effect, 100 complete control), 13 to 15 days
How it was run: (§3)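 Plants were grown to the 2-leaf stage, then pots were flooded to 3 cm above the soil and compounds were applied directly into the paddy water. Water depth was held for the whole test; after 13 to 15 days in a greenhouse, injury was visually rated against untreated controls (0 = no effect, 100 = complete control).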

foxtail, giant [4] = experiment: Test A preemergence; format: in vivo, Setaria faberii; conditions: preemergence
How it was run: as §2

foxtail, giant [5] = experiment: Test A postemergence; format: in vivo, Setaria faberii
How it was run: as §2

corn [6] = experiment: Test A preemergence; format: in vivo, Zea mays; conditions: preemergence
How it was run: as §2

wheat [7] = experiment: Test A postemergence; format: in vivo, Triticum aestivum
How it was run: as §2

velvetleaf [8] = experiment: Test A postemergence; format: in vivo, Abutilon theophrasti
How it was run: as §2

barnyardgrass [9] = experiment: Test A postemergence; format: in vivo, Echinochloa crus-galli
How it was run: as §2

crabgrass, large [10] = experiment: Test A preemergence; format: in vivo, Digitaria sanguinalis; conditions: preemergence
How it was run: as §2

velvetleaf [11] = experiment: Test A preemergence; format: in vivo, Abutilon theophrasti; conditions: preemergence
How it was run: as §2

wheat [12] = experiment: Test A preemergence; format: in vivo, Triticum aestivum; conditions: preemergence
How it was run: as §2

corn [13] = experiment: Test A postemergence; format: in vivo, Zea mays
How it was run: as §2

morningglory [14] = experiment: Test A postemergence; format: in vivo, Ipomoea spp.
How it was run: as §2

barnyardgrass [15] = experiment: Test A preemergence; format: in vivo, Echinochloa crus-galli; conditions: preemergence
How it was run: as §2

sedge, umbrella [16] = experiment: Test C flooded paddy test; format: in vivo, Cyperus difformis; conditions: Flood
How it was run: as §1

rice [17] = experiment: Test C flooded paddy test; format: in vivo, Oryza sativa; conditions: Flood
How it was run: as §1

barnyardgrass [18] = experiment: Test B flood; format: in vivo, Echinochloa crus-galli; conditions: 250 g ai/ha, visual rating on 0 to 100 scale (0 no effect, 100 complete control), 13 to 15 days
How it was run: as §3

rice [19] = experiment: Test B flood; format: in vivo, Oryza sativa; conditions: 250 g ai/ha, visual rating on 0 to 100 scale (0 no effect, 100 complete control), 13 to 15 days
How it was run: as §3

pigweed [20] = experiment: Test A preemergence; format: in vivo, Amaranthus retroflexus; conditions: preemergence
How it was run: as §2

pigweed [21] = experiment: Test A postemergence; format: in vivo, Amaranthus retroflexus
How it was run: as §2

crabgrass, large [22] = experiment: Test A postemergence; format: in vivo, Digitaria sanguinalis
How it was run: as §2

sedge, umbrella [23] = experiment: Test B flood; format: in vivo, Cyperus difformis; conditions: 250 g ai/ha, visual rating on 0 to 100 scale (0 no effect, 100 complete control), 13 to 15 days
How it was run: as §3

ducksalad [24] = experiment: Test C flooded paddy test; format: in vivo, Heteranthera limosa; conditions: Flood
How it was run: as §1

kochia [25] = experiment: Test A postemergence; format: in vivo, Kochia scoparia
Description: (§4) Seeds of plant species selected from barnyardgrass (Echinochloa crus-galli), kochia (Kochia scoparia), common ragweed (Ambrosia elation), Italian ryegrass (Lolium multiflorum), crabgrass, large (large crabgrass, Digitaria sanguinalis), foxtail, giant (giant foxtail, Setaria faberii), morningglory (Ipomoea spp.), pigweed (redroot pigweed, Amaranthus retroflexus), velvetleaf (Abutilon theophrasti), wheat (Triticum aestivum), and corn (Zea mays) were planted into a blend of loam soil and sand and treated preemergence with a directed soil spray using test chemicals formulated in a non-phytotoxic solvent mixture which included a surfactant.
(§5) At the same time, plants selected from these crop and weed species and also blackgrass (Alopecurus myosuroides), and galium (catchweed bedstraw, Galium aparine) were planted in pots containing the same blend of loam soil and sand and treated with postemergence applications of test chemicals formulated in the same manner. Plants ranged in height from 2 to 10 cm and were in the one- to two-leaf stage for the postemergence treatment. Treated plants and untreated controls were maintained in a greenhouse for approximately 10 days, after which time all treated plants were compared to untreated controls and visually evaluated for injury. Plant response ratings, summarized in Table A, are based on a 0 to 100 scale where 0 is no effect and 100 is complete control. A dash (-) response means no test result.

common ragweed [26] = experiment: Test A postemergence; format: in vivo, Ambrosia elation
Description: as §4, §5

Italian ryegrass [27] = experiment: Test A preemergence; format: in vivo, Lolium multiflorum
Description: as §4, §5

common ragweed [28] = experiment: Test A preemergence; format: in vivo, Ambrosia elation
Description: as §4, §5

kochia [29] = experiment: Test A preemergence; format: in vivo, Kochia scoparia
Description: as §4, §5

blackgrass = experiment: Test A postemergence; format: in vivo, Alopecurus myosuroides
Description: as §4, §5

galium = experiment: Test A postemergence; format: in vivo, Galium aparine
Description: as §4, §5

Italian ryegrass [30] = experiment: Test A postemergence; format: in vivo, Lolium multiflorum
Description: as §4, §5

[31] = 31 g ai/ha, scale 0 to 100 (0 no effect, 100 complete control)
[32] = 62 g ai/ha, scale 0 to 100 (0 no effect, 100 complete control)
[33] = 125 g ai/ha, visual injury, 0 to 100 scale, approx. 10 days
[34] = 500 g ai/ha, visual injury after approx. 10 days, 0 to 100 scale (0 no effect, 100 complete control)
[35] = Postemergence, 500 g ai/ha, visual rating after approx. 10 days, 0 to 100 scale (0 no effect, 100 complete control)
[36] = postemergence, 125 g ai/ha, about 10 days, visual rating on 0 to 100 scale (0 no effect, 100 complete control)
[37] = Postemergence, 500 g ai/ha, 0 to 100 scale (0 no effect, 100 complete control)

CCc1cc(C(=O)NCC(F)(F)F)nn1Cc1ccnc(OCC(F)(F)F)c1 [Compound 106]
98: Plant response rating, Sedge, Umbrella (sedge, umbrella [16]; 250 g ai/ha, scale 0 to 100)
50: Foxtail, Giant plant response rating (foxtail, giant [5]; [36]) | Barnyardgrass plant response rating (barnyardgrass [9]; [36]) | Morningglory plant response rating (morningglory [14]; [36]) | Barnyardgrass plant response rating (barnyardgrass [15]; [33]) | Crabgrass, Large plant response rating (crabgrass, large [22]; [36]) | Plant response rating, Ducksalad (ducksalad [24]; [32])
40: Wheat plant response rating (wheat [7]; [35]) | Velvetleaf plant response rating (velvetleaf [8]; [36]) | Plant response rating, Ducksalad (ducksalad [24]; [31])
20: Plant response rating, Barnyardgrass (barnyardgrass [1]; 125 g ai/ha, scale 0 to 100) | Corn plant response rating (corn [6]; [33]) | Plant response rating, Rice (rice [19])
95: Plant response rating, Sedge, Umbrella (sedge, umbrella [16]; 125 g ai/ha, scale 0 to 100)
0: Plant response rating, Barnyardgrass (barnyardgrass [1]; [31]) | Plant response rating, Barnyardgrass (barnyardgrass [1]; [32]) | Plant response rating, Rice (rice [17]; [31]) | Plant response rating, Rice (rice [17]; [32]) | Plant response rating, Rice (rice [17]; 125 g ai/ha, scale 0 to 100) | Plant response rating, Rice (rice [17]; 250 g ai/ha, scale 0 to 100)
30: Plant response rating, Barnyardgrass (barnyardgrass [1]; 250 g ai/ha, scale 0 to 100) | Morningglory plant response rating (morningglory [2]; [33]) | Corn plant response rating (corn [6]; [34]) | Wheat plant response rating (wheat [12]; [34]) | Corn plant response rating (corn [13]; [36]) | Plant response rating, Barnyardgrass (barnyardgrass [18])
70: Velvetleaf plant response rating (velvetleaf [8]; [35]) | Plant response rating, Sedge, Umbrella (sedge, umbrella [16]; [31]) | Plant response rating, Ducksalad (ducksalad [24]; 125 g ai/ha, scale 0 to 100) | Plant response rating, Ducksalad (ducksalad [24]; 250 g ai/ha, scale 0 to 100)
100: Morningglory plant response rating (morningglory [2]; [34]) | Foxtail, Giant plant response rating (foxtail, giant [4]; [33]) | Foxtail, Giant plant response rating (foxtail, giant [4]; [34]) | Crabgrass, Large plant response rating (crabgrass, large [10]; [33]) | Crabgrass, Large plant response rating (crabgrass, large [10]; [34]) | Velvetleaf plant response rating (velvetleaf [11]; [34]) | Morningglory plant response rating (morningglory [14]; [35]) | Barnyardgrass plant response rating (barnyardgrass [15]; [34]) | Pigweed plant response rating (pigweed [20]; [33]) | Pigweed plant response rating (pigweed [20]; [34]) | Pigweed plant response rating (pigweed [21]; [35])
60: Corn plant response rating (corn [13]; [35])
80: Foxtail, Giant plant response rating (foxtail, giant [5]; [35]) | Barnyardgrass plant response rating (barnyardgrass [9]; [35])
90: Plant response rating, Ducksalad (ducksalad [3]) | Pigweed plant response rating (pigweed [21]; [36]) | Crabgrass, Large plant response rating (crabgrass, large [22]; [35]) | Plant response rating, Sedge, Umbrella (sedge, umbrella [23])
85: Plant response rating, Sedge, Umbrella (sedge, umbrella [16]; [32])
10: Wheat plant response rating (wheat [7]; [36]) | Velvetleaf plant response rating (velvetleaf [11]; [33]) | Wheat plant response rating (wheat [12]; [33])

CCCNC(=O)c1cc(CC)n(Cc2cc(C(F)(F)F)no2)n1 [Compound 122]
50: Plant response rating, Ducksalad (ducksalad [3]) | Kochia plant response rating (kochia [25]; [36]) | Plant response rating, Sedge, Umbrella (sedge, umbrella [23]) | Italian Ryegrass plant response rating (Italian ryegrass [30]; [37])
20: Foxtail, Giant plant response rating (foxtail, giant [4]; [33]) | Corn plant response rating (corn [13]; [36]) | Plant response rating, Barnyardgrass (barnyardgrass [18])
30: Common Ragweed plant response rating (common ragweed [26]; [37]) | Italian Ryegrass plant response rating (Italian ryegrass [27]; [34]) | Plant response rating, Rice (rice [19]) | Pigweed plant response rating (pigweed [21]; [36])
70: Barnyardgrass plant response rating (barnyardgrass [9]; [37]) | Galium plant response rating (galium; [37])
40: Pigweed plant response rating (pigweed [21]; [37])
100: Foxtail, Giant plant response rating (foxtail, giant [4]; [34]) | Barnyardgrass plant response rating (barnyardgrass [15]; [34]) | Pigweed plant response rating (pigweed [20]; [34])
90: Foxtail, Giant plant response rating (foxtail, giant [5]; [37]) | Kochia plant response rating (kochia [25]; [37]) | Kochia plant response rating (kochia [29]; [34])
80: Blackgrass plant response rating (blackgrass; [37])
10: Wheat plant response rating (wheat [7]; [37]) | Common Ragweed plant response rating (common ragweed [26]; [36]) | Common Ragweed plant response rating (common ragweed [28]; [33]) | Kochia plant response rating (kochia [29]; [33]) | Blackgrass plant response rating (blackgrass; [36]) | Galium plant response rating (galium; [36]) | Italian Ryegrass plant response rating (Italian ryegrass [30]; [36])
60: Corn plant response rating (corn [13]; [37]) | Pigweed plant response rating (pigweed [20]; [33])
0: Foxtail, Giant plant response rating (foxtail, giant [5]; [36]) | Wheat plant response rating (wheat [7]; [36]) | Barnyardgrass plant response rating (barnyardgrass [9]; [36]) | Italian Ryegrass plant response rating (Italian ryegrass [27]; [33]) | Barnyardgrass plant response rating (barnyardgrass [15]; [33])

CCCNC(=O)c1cc(CC)n(Cc2cc(OC(F)F)nn2C)n1 [Compound 134]
10: Foxtail, Giant plant response rating (foxtail, giant [5]; [36]) | Wheat plant response rating (wheat [7]; [37]) | Barnyardgrass plant response rating (barnyardgrass [9]; [36]) | Corn plant response rating (corn [13]; [36]) | Italian Ryegrass plant response rating (Italian ryegrass [27]; [34]) | Common Ragweed plant response rating (common ragweed [28]; [33]) | Blackgrass plant response rating (blackgrass; [36]) | Italian Ryegrass plant response rating (Italian ryegrass [30]; [37])
70: Foxtail, Giant plant response rating (foxtail, giant [5]; [37]) | Galium plant response rating (galium; [37])
100: Foxtail, Giant plant response rating (foxtail, giant [4]; [34]) | Kochia plant response rating (kochia [29]; [34]) | Pigweed plant response rating (pigweed [20]; [34])
30: Barnyardgrass plant response rating (barnyardgrass [9]; [37]) | Common Ragweed plant response rating (common ragweed [26]; [37]) | Corn plant response rating (corn [13]; [37]) | Galium plant response rating (galium; [36])
80: Common Ragweed plant response rating (common ragweed [28]; [34]) | Kochia plant response rating (kochia [29]; [33])
0: Plant response rating, Ducksalad (ducksalad [3]) | Wheat plant response rating (wheat [7]; [36]) | Italian Ryegrass plant response rating (Italian ryegrass [27]; [33]) | Barnyardgrass plant response rating (barnyardgrass [15]; [33]) | Plant response rating, Barnyardgrass (barnyardgrass [18]) | Plant response rating, Rice (rice [19]) | Plant response rating, Sedge, Umbrella (sedge, umbrella [23]) | Italian Ryegrass plant response rating (Italian ryegrass [30]; [36])
50: Blackgrass plant response rating (blackgrass; [37])
60: Kochia plant response rating (kochia [25]; [36])
90: Kochia plant response rating (kochia [25]; [37]) | Barnyardgrass plant response rating (barnyardgrass [15]; [34]) | Pigweed plant response rating (pigweed [21]; [37])
40: Pigweed plant response rating (pigweed [21]; [36])
20: Foxtail, Giant plant response rating (foxtail, giant [4]; [33]) | Common Ragweed plant response rating (common ragweed [26]; [36]) | Pigweed plant response rating (pigweed [20]; [33])
